According to article PMC9171722, “An Enzyme with High Catalytic Proficiency Utilizes Distal Site Substrate Binding Energy to Stabilize the Closed State but at the Expense of Substrate Inhibition” (ACS Catalysis, 2022):

Key:
[1] = molecular target: T1, β-phosphoglucomutase (βPGM WT) (Lactococcus lactis, UniProt P71447); set-up: gene pgmB
[2] = molecular target: T1, β-phosphoglucomutase (βPGM WT); assay: enzyme kinetics (kcat/Km), G6PDH coupled assay; […] NMR time course; assay type: biochemical; set-up: gene pgmB; full length
[3] = molecular target: T2, β-phosphoglucomutase (βPGM R49A) (Lactococcus lactis, UniProt P71447, R49A); assay: as above; assay type: biochemical
T2 construct: gene pgmB; full length

[4] = molecular target: T3, β-phosphoglucomutase (βPGM R49K) (Lactococcus lactis, UniProt P71447, R49K); assay: as above; assay type: biochemical
T3 construct: gene pgmB; full length

SMILES	crystal structure (1.8 Å), open conformation [1]	enzyme kinetics (kcat/Km), G6PDH coupled assay; 31P NMR time course [2]	enzyme kinetics (kcat/Km), G6PDH coupled assay; 31P NMR time course [3]	enzyme kinetics (kcat/Km), G6PDH coupled assay; 31P NMR time course [4]
O=P(O)(O)O [Pi, phosphate]	a phosphate anion coordinated in the distal site by the guanidinium group of R49			
O=P(O)(O)O[C@@H]1O[C@H](CO)[C@@H](O)[C@H](O)[C@H]1O [βG1P, β-glucose 1-phosphate]		0.29 s^–1·μM^–1	0.02 s^–1·μM^–1	0.05 s^–1·μM^–1
